Reference: EP4545549B1, “INSECT NEUROPEPTIDES” (Solasta Bio Limited, priority 2023, dated 2025)
Like-named read-outs stand apart in the source and are kept apart here. Residues, ends and D or L forms follow the SMILES beside them.

Legend:
Bumblebee = assay: Bee oral toxicity test (adapted from OECD Test No. 247: Bumblebee, Acute Oral Toxicity Test); format: in vivo; conditions: after 96 hours of application; compared with sucrose or vehicle and Imidacloprid; Figure 10
Procedure: Bee oral testing protocol was carried out adapted from OECD Test No. 247: Bumblebee, Acute Oral Toxicity Test. The toxicity of SB-P-46 was compared with a negative control of sucrose or vehicle, and with a current commercial insecticide Imidacloprid.

[1] = system: Amrasca biguttula (leaf hopper); conditions: unformulated SB-P-46; 3 and 7 days after application; Figure 16
From the text: (§1) The data has been processed in the ARM Field Trials software under license.

Aphis fabae = conditions: unformulated SB-P-46; for reduction in naturally infested Aphis fabae numbers as a percentage of untreated control crop: vining peas
From the text: as §1

Aphis gossypii = conditions: Greece; cotton; unformulated SB-P-46; counted 3 days following application; Figure 14
From the text: as §1
AgriScience conducted a field trial in Greece, investigating the efficacy of insecticidal peptides on aphids on cotton crop.

Myzus persicae = conditions: unformulated SB-P-46; leaf dip; mortality assessed at 72, 96 and 120 hours; compared to vehicle and Spirotetramat; Figures 6 and 7
Procedure: The assay was carried out based on IRAC susceptibility test method 019 (https://irac-online.org/methods/aphids-adultnymphs/).
Dip a 2.5 cm leaf disc into 3 ml of treatment solution allowing the treatment to coat the leaf. Leave the disc to dry for 1 hour and place onto the set agar. Place insects (aphids) onto each of the leaf discs. Each unit is sealed with a close-fitting, ventilated lid. Place the agar dishes in a small plastic tray lined with moist tissue paper and ensure the water trays in the bottom of the incubator are filled with clean water and place within the incubator. An assessment of mortality is made at 72, 96 and 120 hours. Leaf dip assays were performed with unformulated SB-P-46, and compared to a negative control vehicle and a current commercial insecticide Spirotetramat.

## CC(C)C[C@H](NC(=O)[C@H](CCCNC(=N)N)NC(=O)[C@@H]1CCCN1C(=O)[C@H](CO)NC(=O)[C@H](Cc1ccccc1)NC(=O)[C@@H]1CCCN1C(=O)[C@@H]1CCCN1C(=O)[C@H](CO)NC(=O)[C@H](Cc1ccc(O)cc1)NC(=O)[C@@H]1CCCN1C(=O)[C@@H]1CCCN1C(=O)[C@@H](N)CO)C(N)=O [SB-P-46, [Hy]-SPPYSPPFSPRL-[NH2]] (H-SPPYSPPFSPRL-NH2)
Bumblebee
  bee oral toxicity (% survival): far lower toxicity to key pollinator species such as bees compared to broad spectrum chemical insecticides such as Imidacloprid
[1]
  activity against naturally infested Amrasca biguttula (leaf hopper) in field trials: acted comparably to Flipper insecticide
Aphis fabae; Wigtoft location, counted 4 days following application, Figure 12
  reduction in naturally infested Aphis fabae numbers as a percentage of untreated control crop: similarly efficacious activity
Aphis fabae; field trial 1, Chatteris location, counted 14 days following application, Figure 11
  reduction in naturally infested Aphis fabae numbers as a percentage of untreated control crop: performed comparably to the conventional insecticides Stealth and Teppeki (sprayed as Treatment 1), followed by Aphox (sprayed as Treatment 2)
Aphis fabae; third trial (slot trial), Holbeach location, counted 7 days following application, low aphid infestation, Figure 13
  reduction in naturally infested Aphis fabae numbers as a percentage of untreated control crop: performed as efficaciously as the conventional pesticides tested
Aphis fabae; 4 and 8 days after application, Figure 15
  activity against naturally infested Aphis fabae in field trials: acted comparably to Hallmark Zeon insecticide
Aphis gossypii
  reduction in naturally infested Aphis gossypii numbers as a percentage of untreated control crop: performing with close efficacy to the conventional pesticide equivalent tested
Myzus persicae
  activity against Myzus persicae: good activity
